Measurements reported in ChEMBL document CHEMBL1177825, “Subtype-selectivity of metal-dependent methionine aminopeptidase inhibitors” (Bioorg Med Chem Lett, 2010).
pIC50: −log10 of the molar value. Active and inactive are the calls of the source. The rule behind the calls is not given here.

Legend:
Escherichia coli = experiment: Inhibition of Escherichia coli MetAP at 25 uM
Staphylococcus aureus = experiment: Inhibition of Staphylococcus aureus MetAP at 25 uM
[1] = Inhibition of Staphylococcus aureus MetAP
[2] = Inhibition of Escherichia coli MetAP
[3] = target: Methionine aminopeptidase 2 (Homo sapiens, UniProt P50579); experiment: Inhibition of human MetAP2 expressed in baculovirus infected Sf9 cells
Methionine aminopeptidase 2, sequence (P50579 whole entry): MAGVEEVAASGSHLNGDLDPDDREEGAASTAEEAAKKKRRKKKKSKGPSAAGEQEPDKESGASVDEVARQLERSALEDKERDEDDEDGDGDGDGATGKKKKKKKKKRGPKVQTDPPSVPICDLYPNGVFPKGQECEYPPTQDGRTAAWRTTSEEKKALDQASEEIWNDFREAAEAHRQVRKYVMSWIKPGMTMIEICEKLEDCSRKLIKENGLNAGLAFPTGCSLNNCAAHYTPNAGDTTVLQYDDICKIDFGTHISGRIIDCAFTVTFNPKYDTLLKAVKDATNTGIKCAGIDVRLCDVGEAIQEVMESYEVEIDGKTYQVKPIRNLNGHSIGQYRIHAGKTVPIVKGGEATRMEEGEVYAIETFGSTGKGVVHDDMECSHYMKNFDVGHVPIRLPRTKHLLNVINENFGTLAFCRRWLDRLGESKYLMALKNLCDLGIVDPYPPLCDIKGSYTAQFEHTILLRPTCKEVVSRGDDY

[4] = target: Methionine aminopeptidase 1 (Homo sapiens, UniProt P53582); experiment: Inhibition of human MetAP1

| SMILES | inhibition (Escherichia coli) | inhibition (Staphylococcus aureus) | pIC50 [1] | pIC50 [2] | pIC50 [3] | pIC50 [4] |
| --- | --- | --- | --- | --- | --- | --- |
| O=S(=O)(Oc1cccc2cccnc12)c1ccccn1 | 38% | inactive |  |  |  |  |
| c1ccc(-c2nc3cc[nH]cc-3n2)nc1 |  | 55% | 4.64 | 6.26 |  |  |
| c1ccc(-c2nc3ccccc3[nH]2)nc1 |  | 56% | 4.70 | 6.24 | 4.88 | 4.55 |
| Oc1ccccc1-c1nc2ccccc2[nH]1 | 66% | 12% |  |  |  |  |
| c1ccc2[nH]c(-c3cscn3)nc2c1 [THIABENDAZOLE] | 86.3% | 28% |  | 6.33 | 4.35 | 4.32 |
| Cc1cc2nc(-c3ccccn3)[nH]c2cc1C |  | 87% | 4.75 | 5.62 |  |  |
| O=C(Nc1nccs1)c1ccccn1 | 100% | 58% | 4.67 | 7.22 | 4.59 | 5.09 |
| N#Cc1ccc2[nH]c(-c3ccccn3)nc2c1 |  | 29% | 4.48 | 6.37 |  |  |
| O=S(=O)(Oc1cccc2cccnc12)c1ccccc1 | inactive | 62% | 4.80 |  |  |  |
| c1cc2nc(-c3cscn3)[nH]c2cn1 |  |  |  |  |  | 4.72 |
| Clc1ccc2[nH]c(-c3cscn3)nc2c1 |  | 15% |  | 5.28 |  |  |
| c1ccc(Cn2c(-c3ccccn3)nc3ccccc32)cc1 |  | inactive |  | 6.00 |  |  |
| Nc1ccc2[nH]c(-c3cscn3)nc2c1 |  | 92% | 5.64 | 5.47 |  |  |
| O=[N+]([O-])c1ccc2[nH]c(-c3ccccn3)nc2c1 |  | inactive |  | 6.80 |  | 4.54 |
| c1coc(-c2nc3ccccc3[nH]2)c1 | 26% | 10% |  |  |  |  |
| c1ccc2[nH]c(-c3cnccn3)nc2c1 |  | inactive |  | 5.34 |  |  |
| c1ccc(-c2nc3c[nH]cnc-3n2)nc1 |  | 18% |  | 6.42 |  |  |
| Cc1ccc2nc(-c3ccccn3)[nH]c2c1 |  | 68% | 4.71 | 5.68 |  |  |
| c1ccc(-c2nc3ncc[nH]c-3n2)nc1 |  | 51% | 4.66 | 6.62 |  |  |
| O=C(Nc1cccc2cccnc12)c1ccccc1 | inactive | inactive |  |  |  |  |
| O=S(=O)(Nc1cccc2cccnc12)c1ccccc1 | 93% | 47% | 4.64 | 4.96 | 4.40 |  |
| CC(C)(C)c1ccc2[nH]c(-c3cscn3)nc2c1 |  | 30.2% | 4.38 | 5.41 |  |  |
| Nc1ccc2[nH]c(-c3ccccn3)nc2c1 |  | 92% | 5.31 | 6.01 |  |  |
| Oc1cccnc1-c1nc2ccccc2[nH]1 |  | 97% | 5.36 | 6.11 |  |  |
| Cc1cc(NC(=O)c2ccccn2)no1 | 80% | 20% |  | 5.55 |  |  |

| SMILES | inhibition (Escherichia coli) | inhibition (Staphylococcus aureus) | pIC50 [1] | pIC50 [2] | pIC50 [3] | pIC50 [4] |
| --- | --- | --- | --- | --- | --- | --- |
| c1ccc2[nH]c(Nc3nccs3)nc2c1 |  | 52% | 4.65 | 6.27 |  |  |
| Fc1ccc2nc(-c3ccccn3)[nH]c2c1 |  | 31% | 4.40 | 5.82 |  |  |
| O=S(=O)(Nc1nccs1)c1ccccn1 | 23% |  |  |  |  |  |
| COC(=O)Nc1nc2ccccc2[nH]1 | 34% | inactive |  |  |  |  |
| COC(=O)Nc1nc2cc(C(=O)c3ccccc3)ccc2[nH]1 | 47% | inactive |  |  |  |  |
| COC(=O)Nc1nc2cc(Sc3ccccc3)ccc2[nH]1 | inactive | 12.5% |  |  |  |  |
| c1cncc(-c2nc3ccccc3[nH]2)c1 | inactive | 20% |  |  |  |  |
| c1cc2[nH]c(-c3cscn3)nc2cn1 |  | 32% | 4.34 | 5.77 |  |  |
| Nc1ccc2nc(-c3ccccn3)[nH]c2c1 |  |  |  |  | 5.03 |  |
| c1csc(-c2nc3ccccc3[nH]2)c1 | inactive | inactive |  |  |  |  |
| O=C(Oc1cccc2cccnc12)c1ccccc1 [BENZOXIQUINE] | 32% | 10% |  |  | 4.46 |  |
| N/C(S)=N/c1nc2ccccc2[nH]1 |  | 31% | 4.44 | 5.05 |  |  |
| Oc1cccc(-c2nc3ccccc3[nH]2)n1 |  | 47% | 4.53 | 5.89 |  |  |
| c1ccc(-c2nc3ccc[nH]c-3n2)nc1 |  | 76% | 4.73 | 6.96 |  |  |
| c1cnc2nc(-c3nccs3)[nH]c2c1 |  | 21% |  | 7.10 |  |  |
| CC(C)(C)c1ccc2[nH]c(-c3ccccn3)nc2c1 |  | 40.9% | 4.41 | 5.59 |  |  |
| Cc1ccc(S(=O)(=O)Oc2cccc3cccnc23)cc1 | inactive | inactive |  |  |  |  |
| CCCSc1ccc2[nH]c(NC(=O)OC)nc2c1 | 35% | 10.5% |  |  |  |  |
| O=[N+]([O-])c1ccc2nc(-c3cscn3)[nH]c2c1 |  |  |  |  |  | 4.31 |
| Cc1ccc2[nH]c(-c3ccccn3)nc2c1 |  |  |  |  | 5.11 |  |
| Clc1ccc2nc(-c3ccccn3)[nH]c2c1 |  | 16% |  | 5.77 |  |  |
| Cc1cc2nc(-c3cscn3)[nH]c2cc1C |  | 17% |  | 5.00 |  |  |
| Oc1cccc2cccnc12 [OXYQUINOLINE] | 95% | 65% | 4.74 | 6.11 | 5.25 | 4.67 |
| O=C(Nc1nccs1)c1ccc([N+](=O)[O-])cc1 | inactive | inactive |  |  |  |  |
| Cc1cc(NS(=O)(=O)c2ccccn2)no1 | 21% | inactive |  |  |  |  |
